# Reference: ChEMBL document CHEMBL1122576 (J Med Chem, 1984)
# Tests used:
# [1] = system: Rattus norvegicus; experiment: Dose that decreased galactitol accumulation by 50% in the sciatic nerve in the galactosemic rat model after administration for 4 days in the diet; type: functional
# [2] = system: Rattus norvegicus; experiment: Dose that decreased sorbitol accumulation by 50% in the sciatic nerve in the galactosemic rat model after administration for 3 weeks in the diet; type: functional
# [3] = target: Aldo-keto reductase family 1 member B1 (Bos taurus, UniProt P16116); experiment: Inhibition of bovine lens aldose reductase with DL-glyceraldehyde as substrate
# [4] = system: Rattus norvegicus; experiment: Dose that decreased sorbitol accumulation by 50% in the sciatic nerve in the galactosemic rat model after administration for 3 weeks in the diet; 4.8+/- 2.4 mg/(kg day); type: functional
# [5] = system: Rattus norvegicus; experiment: Dose that decreased galactitol accumulation by 50% in the sciatic nerve in the galactosemic rat model after administration for 4 days in the diet; 7.3+/-2.3 mg/(kg day); type: functional
IC50 [3],SMILES,Dose [1],Dose [2],Dose [4],Dose [5]
2700 nM,O=C(O)CN1C(=O)c2cccc3cccc(c23)C1=O [ALRESTATIN],~900 mg/kg/day,~1000 mg/kg/day,,
,COc1ccc2c(C(=S)N(C)CC(=O)O)cccc2c1C(F)(F)F [TOLRESTAT],,,4.8 mg/kg/day,7.3 mg/kg/day
